Measured values from ChEMBL document CHEMBL1141332, “Cytotoxic metabolites from an Indonesian sponge Lendenfeldia sp” (J Nat Prod, 2007).

What was measured:
Assay type in all cases: functional
HL-60 = assay: Cytotoxicity against human HL60 cells; conditions: Homo sapiens, HL-60
K562 = assay: Cytotoxicity against human K562 cells
MOLT-4 = assay: Cytotoxicity against human MOLT4 cells
RPMI-8226 = assay: Cytotoxicity against human RPMI8226 cells
SR = assay: Cytotoxicity against human SR cells
A549 = assay: Cytotoxicity against human A549 cells
HOP-62 = assay: Cytotoxicity against human HOP62 cells
HOP-92 = assay: Cytotoxicity against human HOP92 cells
NCI-H226 = assay: Cytotoxicity against human NCI-H226 cells
NCI-H23 = assay: Cytotoxicity against human NCI-H23 cells
NCI-H322M = assay: Cytotoxicity against human NCI-H322M cells
NCI-H460 = assay: Cytotoxicity against human NCI-H460 cells
LOX IMVI = assay: Cytotoxicity against human LOX IMVI cells
COLO 205 = assay: Cytotoxicity against human COLO205 cells
HCC 2998 = assay: Cytotoxicity against human HCC2998 cells
HCT-15 = assay: Cytotoxicity against human HCT15 cells
SW-620 = assay: Cytotoxicity against human SW620 cells
SF-268 = assay: Cytotoxicity against human SF268 cells
SF-295 = assay: Cytotoxicity against human SF295 cells
SF-539 = assay: Cytotoxicity against human SF539 cells
U-251 = assay: Cytotoxicity against human U251cells
Malme-3M = assay: Cytotoxicity against human MALME-3M cells
M14 = assay: Cytotoxicity against human M14 cells
SK-MEL-28 = assay: Cytotoxicity against human SK-MEL-28 cells
SK-MEL-5 = assay: Cytotoxicity against human SK-MEL-5 cells
UACC-257 = assay: Cytotoxicity against human UACC257 cells
UACC-62 = assay: Cytotoxicity against human UACC62 cells
IGROV-1 = assay: Cytotoxicity against human IGROV1 cells
OVCAR-3 = assay: Cytotoxicity against human OVCAR-3 cells
OVCAR-4 = assay: Cytotoxicity against human OVCAR4 cells
OVCAR-5 = assay: Cytotoxicity against human OVCAR5 cells
OVCAR-8 = assay: Cytotoxicity against human OVCAR8 cells
SK-OV-3 = assay: Cytotoxicity against human SK-OV-3 cells
786-0 = assay: Cytotoxicity against human 786-0 cells
A498 = assay: Cytotoxicity against human A498 cells
ACHN = assay: Cytotoxicity against human ACHN cells
RXF 393 = assay: Cytotoxicity against human RXF393 cells
SN12C = assay: Cytotoxicity against human SN12C cells
TK-10 = assay: Cytotoxicity against human TK10 cells
UO-31 = assay: Cytotoxicity against human UO31 cells
PC-3 = assay: Cytotoxicity against human PC3 cells
DU-145 = assay: Cytotoxicity against human DU145 cells
MCF7 = assay: Cytotoxicity against human MCF7 cells
NCI/ADR-RES = assay: Cytotoxicity against human NCI/ADR-RES cells
BT-549 = assay: Cytotoxicity against human BT549 cells
T47D = assay: Cytotoxicity against human T47D cells
[1] = read-out: Log LC50 (the source's name) (converted)

SMILES: CC(=O)O[C@@H]1C[C@H]2[C@]3(C)CC[C@H]4C(C)(C)CCC[C@]4(C)[C@H]3C[C@H](O)[C@]2(C)[C@@H](C=O)[C@@H]1C(C)=O [SCALARHERBACIN A]
- GI50 (HL-60): 1320 nM
- CC50 (HL-60; [1]): 8510 nM
- TGI (HL-60; read-out: Log TGI (converted)): 3390 nM
- GI50 (K562): 1740 nM
- CC50 (K562; [1]): 7760 nM
- TGI (K562; read-out: Log TGI (converted)): 3720 nM
- GI50 (MOLT-4): 324 nM
- CC50 (MOLT-4; [1]): 4170 nM
- TGI (MOLT-4; read-out: Log TGI (converted)): 1120 nM
- GI50 (RPMI-8226): 407 nM
- CC50 (RPMI-8226; [1]): 13200 nM
- TGI (RPMI-8226; read-out: Log TGI (converted)): 2090 nM
- GI50 (SR): 282 nM
- TGI (SR; read-out: Log TGI (converted)): 1150 nM
- GI50 (A549): 1230 nM
- CC50 (A549; [1]): 6610 nM
- TGI (A549; read-out: Log TGI (converted)): 2820 nM
- GI50 (HOP-62): 1070 nM
- CC50 (HOP-62; [1]): 4790 nM
- TGI (HOP-62; read-out: Log TGI (converted)): 2240 nM
- GI50 (HOP-92): 1320 nM
- CC50 (HOP-92; [1]): 5500 nM
- TGI (HOP-92; read-out: Log TGI (converted)): 2690 nM
- GI50 (NCI-H226): 1580 nM
- CC50 (NCI-H226; [1]): 6760 nM
- TGI (NCI-H226; read-out: Log TGI (converted)): 3240 nM
- GI50 (NCI-H23): 1660 nM
- CC50 (NCI-H23; [1]): 6170 nM
- TGI (NCI-H23; read-out: Log TGI (converted)): 3240 nM
- GI50 (NCI-H322M): 2140 nM
- CC50 (NCI-H322M; [1]): 8710 nM
- TGI (NCI-H322M; read-out: Log TGI (converted)): 4270 nM
- GI50 (NCI-H460): 1450 nM
- CC50 (NCI-H460; [1]): 6760 nM
- TGI (NCI-H460; read-out: Log TGI (converted)): 3160 nM
- GI50 (LOX IMVI): 1000 nM
- CC50 (LOX IMVI; [1]): 4680 nM
- TGI (LOX IMVI; read-out: Log TGI (converted)): 2140 nM
- GI50 (COLO 205): 537 nM
- CC50 (COLO 205; [1]): 5250 nM
- TGI (COLO 205; read-out: Log TGI (converted)): 1860 nM
- GI50 (HCC 2998): 1510 nM
- CC50 (HCC 2998; [1]): 5620 nM
- TGI (HCC 2998; read-out: Log TGI (converted)): 2950 nM
- GI50 (HCT-15): 759 nM
- CC50 (HCT-15; [1]): 4790 nM
- TGI (HCT-15; read-out: Log TGI (converted)): 2040 nM
- GI50 (SW-620): 214 nM
- CC50 (SW-620; [1]): 1070 nM
- TGI (SW-620; read-out: Log TGI (converted)): 468 nM
- GI50 (SF-268): 1450 nM
- CC50 (SF-268; [1]): 7410 nM
- TGI (SF-268; read-out: Log TGI (converted)): 3240 nM
- GI50 (SF-295): 1450 nM
- CC50 (SF-295; [1]): 6170 nM
- TGI (SF-295; read-out: Log TGI (converted)): 3020 nM
- GI50 (SF-539): 417 nM
- TGI (SF-539; read-out: Log TGI (converted)): 1580 nM
- GI50 (U-251): 589 nM
- CC50 (U-251; [1]): 4270 nM
- TGI (U-251; read-out: Log TGI (converted)): 1780 nM
- GI50 (Malme-3M): 1950 nM
- TGI (Malme-3M; read-out: Log TGI (converted)): 3890 nM
- GI50 (M14): 1450 nM
- CC50 (M14; [1]): 5370 nM
- TGI (M14; read-out: Log TGI (converted)): 2750 nM
- GI50 (SK-MEL-28): 389 nM
- TGI (SK-MEL-28; read-out: Log TGI (converted)): 1290 nM
- GI50 (SK-MEL-5): 1290 nM
- CC50 (SK-MEL-5; [1]): 5250 nM
- TGI (SK-MEL-5; read-out: Log TGI (converted)): 2630 nM
- GI50 (UACC-257): 2190 nM
- CC50 (UACC-257; [1]): 27500 nM
- TGI (UACC-257; read-out: Log TGI (converted)): 5250 nM
- GI50 (UACC-62): 1580 nM
- CC50 (UACC-62; [1]): 5500 nM
- TGI (UACC-62; read-out: Log TGI (converted)): 2950 nM
- GI50 (IGROV-1): 1950 nM
- CC50 (IGROV-1; [1]): 8320 nM
- TGI (IGROV-1; read-out: Log TGI (converted)): 4070 nM
- GI50 (OVCAR-3): 1120 nM
- CC50 (OVCAR-3; [1]): 5500 nM
- TGI (OVCAR-3; read-out: Log TGI (converted)): 2510 nM
- GI50 (OVCAR-4): 912 nM
- CC50 (OVCAR-4; [1]): 6610 nM
- TGI (OVCAR-4; read-out: Log TGI (converted)): 2510 nM
- GI50 (OVCAR-5): 1320 nM
- CC50 (OVCAR-5; [1]): 5130 nM
- TGI (OVCAR-5; read-out: Log TGI (converted)): 2630 nM
- GI50 (OVCAR-8): 676 nM
- CC50 (OVCAR-8; [1]): 57500 nM
- TGI (OVCAR-8; read-out: Log TGI (converted)): 3890 nM
- GI50 (SK-OV-3): 2000 nM
- CC50 (SK-OV-3; [1]): 8130 nM
- TGI (SK-OV-3; read-out: Log TGI (converted)): 3980 nM
- GI50 (786-0): 479 nM
- CC50 (786-0; [1]): 4070 nM
- TGI (786-0; read-out: Log TGI (converted)): 1620 nM
- GI50 (A498): 1820 nM
- LC50 (A498): 6760 nM
- TGI (A498; read-out: Log TGI (converted)): 3470 nM
- GI50 (ACHN): 457 nM
- LC50 (ACHN): 3980 nM
- TGI (ACHN; read-out: Log TGI (converted)): 1550 nM
- GI50 (RXF 393): 1150 nM
- LC50 (RXF 393): 5370 nM
- TGI (RXF 393; read-out: Log TGI (converted)): 2510 nM
- GI50 (SN12C): 1350 nM
- TGI (SN12C; read-out: Log TGI (converted)): 2750 nM
- GI50 (TK-10): 1380 nM
- LC50 (TK-10): 6610 nM
- TGI (TK-10; read-out: Log TGI (converted)): 3020 nM
- GI50 (UO-31): 1230 nM
- TGI (UO-31; read-out: Log TGI (converted)): 2570 nM
- GI50 (PC-3): 741 nM
- LC50 (PC-3): 5250 nM
- TGI (PC-3; read-out: Log TGI (converted)): 2140 nM
- GI50 (DU-145): 1230 nM
- LC50 (DU-145): 5130 nM
- TGI (DU-145; read-out: Log TGI (converted)): 2510 nM
- GI50 (MCF7): 1820 nM
- LC50 (MCF7): 70800 nM
- TGI (MCF7; read-out: Log TGI (converted)): 6170 nM
- GI50 (NCI/ADR-RES): 1660 nM
- LC50 (NCI/ADR-RES): 7080 nM
- TGI (NCI/ADR-RES; read-out: Log TGI (converted)): 3470 nM
- GI50 (BT-549): 562 nM
- LC50 (BT-549): 4370 nM
- TGI (BT-549; read-out: Log TGI (converted)): 1780 nM
- GI50 (T47D): 832 nM
- LC50 (T47D): 25100 nM
- TGI (T47D; read-out: Log TGI (converted)): 3550 nM
